According to ChEMBL document CHEMBL5678816, “A Next-Generation TRK Kinase Inhibitor Overcomes Acquired Resistance to Prior TRK Kinase Inhibition in Patients with TRK Fusion-Positive Solid Tumors” (Cancer Discov, 2017):
Active and inactive are the calls of the source. The calls are words filed in the database; no cut-off is given here.

Key:
[1] = target: Ribosomal protein S6 kinase alpha-2 (Homo sapiens) (UniProt Q15349); assay: Inhibition of Rsk3 (unknown origin) at 1 uM in presence of ATP relative to control; values are per cent of control
Sequence of Ribosomal protein S6 kinase alpha-2 (Homo sapiens) (Q15349 whole entry): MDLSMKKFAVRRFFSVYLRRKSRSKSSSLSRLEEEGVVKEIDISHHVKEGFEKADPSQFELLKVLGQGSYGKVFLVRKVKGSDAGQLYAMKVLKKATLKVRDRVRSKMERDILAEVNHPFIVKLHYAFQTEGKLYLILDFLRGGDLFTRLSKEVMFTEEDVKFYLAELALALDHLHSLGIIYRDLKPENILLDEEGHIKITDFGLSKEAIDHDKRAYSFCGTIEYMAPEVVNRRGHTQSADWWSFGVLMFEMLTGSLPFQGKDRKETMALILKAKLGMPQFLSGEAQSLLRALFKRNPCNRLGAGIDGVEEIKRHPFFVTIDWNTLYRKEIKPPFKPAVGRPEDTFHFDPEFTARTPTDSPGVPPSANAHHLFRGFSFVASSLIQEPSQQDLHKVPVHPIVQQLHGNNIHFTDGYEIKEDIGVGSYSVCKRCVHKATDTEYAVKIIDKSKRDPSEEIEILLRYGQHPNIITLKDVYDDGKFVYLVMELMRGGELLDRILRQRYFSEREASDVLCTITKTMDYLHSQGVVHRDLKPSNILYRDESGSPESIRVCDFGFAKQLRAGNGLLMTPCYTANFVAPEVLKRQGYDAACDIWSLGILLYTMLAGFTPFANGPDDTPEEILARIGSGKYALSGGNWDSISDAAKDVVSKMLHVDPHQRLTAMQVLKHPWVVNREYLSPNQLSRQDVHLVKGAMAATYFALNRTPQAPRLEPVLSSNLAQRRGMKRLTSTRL

EFM-19 = assay: Inhibition of cell proliferation in human EFM-19 cells upto 10 umol/L incubated for 72 hrs by DAPI staining based analysis; type: functional; settings: dose <= 10.0 µmol/L
C32 = assay: Inhibition of cell proliferation in human C32 cells upto 10 umol/L incubated for 72 hrs by DAPI staining based analysis; type: functional; settings: dose <= 10.0 µmol/L
[2] = target: Serine/threonine-protein kinase MRCK beta (Homo sapiens) (UniProt Q9Y5S2); assay: Inhibition of MRCKbeta (unknown origin) at 1 uM in presence of ATP relative to control; values are per cent of control
A101D = assay: Inhibition of cell proliferation in human A101D cells upto 10 umol/L incubated for 72 hrs by DAPI staining based analysis; type: functional; settings: dose <= 10.0 µmol/L
[3] = target: Serine/threonine-protein kinase 3 (Homo sapiens) (UniProt Q13188); assay: Inhibition of MST2 (unknown origin) at 1 uM in presence of ATP relative to control; values are per cent of control
[4] = target: Serine/threonine-protein kinase 24 (Homo sapiens) (UniProt Q9Y6E0); assay: Inhibition of MST3 (unknown origin) at 1 uM in presence of ATP relative to control; values are per cent of control
Sequence of Serine/threonine-protein kinase 24 (Homo sapiens) (Q9Y6E0 whole entry, looked up): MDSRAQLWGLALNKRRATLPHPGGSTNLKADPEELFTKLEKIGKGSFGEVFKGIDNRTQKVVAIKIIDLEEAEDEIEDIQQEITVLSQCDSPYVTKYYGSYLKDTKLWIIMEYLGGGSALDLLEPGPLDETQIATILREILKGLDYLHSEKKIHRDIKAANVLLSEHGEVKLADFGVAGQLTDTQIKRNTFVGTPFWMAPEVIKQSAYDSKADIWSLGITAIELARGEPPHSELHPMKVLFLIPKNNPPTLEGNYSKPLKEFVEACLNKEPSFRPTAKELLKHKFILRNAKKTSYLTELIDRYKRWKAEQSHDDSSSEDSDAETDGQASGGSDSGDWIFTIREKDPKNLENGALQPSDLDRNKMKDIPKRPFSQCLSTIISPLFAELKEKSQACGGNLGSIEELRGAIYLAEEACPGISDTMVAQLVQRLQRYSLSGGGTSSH

[5] = Cmax in pediatric patient with recurrent ETV6-NTRK3-rearranged infantile fibrosarcoma at 100 mg administered twice a day as liquid formulation for 29 day by LC-MS/MS analysis; type: ADME; settings: human, in vivo
[6] = target: Serine/threonine-protein kinase TAO1 (Homo sapiens) (UniProt Q7L7X3); assay: Inhibition of TAO1 (unknown origin) at 1 uM in presence of ATP relative to control; values are per cent of control
Sequence of Serine/threonine-protein kinase TAO1 (Homo sapiens) (Q7L7X3 whole entry): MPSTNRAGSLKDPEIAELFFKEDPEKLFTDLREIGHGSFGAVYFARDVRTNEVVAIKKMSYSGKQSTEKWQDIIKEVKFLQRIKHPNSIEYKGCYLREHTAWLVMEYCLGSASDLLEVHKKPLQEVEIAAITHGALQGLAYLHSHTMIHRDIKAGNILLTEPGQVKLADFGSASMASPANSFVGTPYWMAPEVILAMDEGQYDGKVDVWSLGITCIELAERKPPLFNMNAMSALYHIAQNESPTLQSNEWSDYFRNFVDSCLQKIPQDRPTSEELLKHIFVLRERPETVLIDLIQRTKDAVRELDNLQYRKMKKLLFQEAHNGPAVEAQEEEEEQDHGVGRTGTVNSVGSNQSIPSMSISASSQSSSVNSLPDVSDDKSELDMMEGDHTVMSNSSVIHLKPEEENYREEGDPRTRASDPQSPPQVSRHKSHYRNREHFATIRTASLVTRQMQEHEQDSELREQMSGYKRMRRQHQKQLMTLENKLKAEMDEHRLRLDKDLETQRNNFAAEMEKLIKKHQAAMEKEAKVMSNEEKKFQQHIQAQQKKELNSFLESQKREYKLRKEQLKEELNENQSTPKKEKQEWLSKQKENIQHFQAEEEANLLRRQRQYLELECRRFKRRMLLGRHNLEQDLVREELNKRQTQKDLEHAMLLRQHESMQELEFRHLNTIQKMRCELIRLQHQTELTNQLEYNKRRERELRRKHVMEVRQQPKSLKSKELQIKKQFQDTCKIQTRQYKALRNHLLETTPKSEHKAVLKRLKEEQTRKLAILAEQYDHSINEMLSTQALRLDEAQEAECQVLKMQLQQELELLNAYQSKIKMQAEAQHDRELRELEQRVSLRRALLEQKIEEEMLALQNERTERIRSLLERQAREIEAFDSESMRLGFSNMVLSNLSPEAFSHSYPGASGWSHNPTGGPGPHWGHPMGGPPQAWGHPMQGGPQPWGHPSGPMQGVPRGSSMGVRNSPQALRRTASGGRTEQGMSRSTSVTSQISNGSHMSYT

[7] = target: Serine/threonine-protein kinase 4 (Homo sapiens) (UniProt Q13043); assay: Inhibition of MST1 (unknown origin) at 1 uM in presence of ATP relative to control; values are per cent of control
[8] = Inhibition of N-terminal 3FLAG-tagged ETV6-TRKC G623R mutant (unknown origin) expressed in NIH3T3 cells assessed as ERK1/2 phosphorylation incubated for 1 hrs by flow cytometric analysis; type: cell-based, Homo sapiens
NCI-H661 = assay: Inhibition of cell proliferation in human NCI-H661 cells upto 10 umol/L incubated for 72 hrs by DAPI staining based analysis; type: functional; settings: dose <= 10.0 µmol/L
Homo sapiens [9] = species on record: Homo sapiens; assay: Inhibition of CDK2/cyclinA (unknown origin) at 1 uM in presence of ATP relative to control; values are per cent of control
[10] = target: Casein kinase I isoform gamma-3 (Homo sapiens) (UniProt Q9Y6M4); assay: Inhibition of CK1gamma3 (unknown origin) at 1 uM in presence of ATP relative to control; values are per cent of control
[11] = target: Cytoplasmic tyrosine-protein kinase BMX (Homo sapiens) (UniProt P51813); assay: Inhibition of Bmx (unknown origin) at 1 uM in presence of ATP relative to control
[12] = target: Tyrosine-protein kinase receptor UFO (Homo sapiens) (UniProt P30530); assay: Inhibition of Axl (unknown origin) at 1 uM in presence of ATP relative to control; values are per cent of control
[13] = target: Proto-oncogene tyrosine-protein kinase Src (Homo sapiens) (UniProt P12931); assay: Inhibition of SrC (unknown origin) at 1 uM in presence of ATP relative to control; values are per cent of control
OE19 = assay: Inhibition of cell proliferation in human OE19 cells upto 10 umol/L incubated for 72 hrs by DAPI staining based analysis; type: functional; settings: dose <= 10.0 µmol/L
LC2 = assay: Inhibition of cell proliferation in human LC2 cells upto 10 umol/L incubated for 72 hrs by DAPI staining based analysis; type: functional; settings: dose <= 10.0 µmol/L
[14] = target: RAF proto-oncogene serine/threonine-protein kinase (Homo sapiens) (UniProt P04049); assay: Inhibition of C-RAF (unknown origin) at 1 uM in presence of ATP relative to control; values are per cent of control
[15] = target: Dual specificity tyrosine-phosphorylation-regulated kinase 2 (Homo sapiens) (UniProt Q92630); assay: Inhibition of DYRK2 (unknown origin) at 1 uM in presence of ATP relative to control; values are per cent of control
[16] = target: Serine/threonine-protein kinase Sgk2 (Homo sapiens) (UniProt Q9HBY8); assay: Inhibition of SGK2 (unknown origin) at 1 uM in presence of ATP relative to control; values are per cent of control
Sequence of Serine/threonine-protein kinase Sgk2 (Homo sapiens) (Q9HBY8 whole entry): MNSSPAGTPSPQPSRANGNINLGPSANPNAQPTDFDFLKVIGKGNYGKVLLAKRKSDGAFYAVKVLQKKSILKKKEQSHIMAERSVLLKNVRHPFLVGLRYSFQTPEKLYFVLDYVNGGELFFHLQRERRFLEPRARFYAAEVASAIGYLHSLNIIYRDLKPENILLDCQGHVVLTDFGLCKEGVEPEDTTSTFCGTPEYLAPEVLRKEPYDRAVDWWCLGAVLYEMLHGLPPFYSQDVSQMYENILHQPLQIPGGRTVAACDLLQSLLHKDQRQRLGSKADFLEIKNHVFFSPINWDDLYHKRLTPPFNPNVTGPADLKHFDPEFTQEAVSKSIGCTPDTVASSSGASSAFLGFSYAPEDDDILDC

RT112/84 = assay: Inhibition of cell proliferation in human RT112/84 cells upto 10 umol/L incubated for 72 hrs by DAPI staining based analysis; type: functional; settings: dose <= 10.0 µmol/L
[17] = target: SRSF protein kinase 2 (Homo sapiens) (UniProt P78362); assay: Inhibition of SRPK2 (unknown origin) at 1 uM in presence of ATP relative to control; values are per cent of control
Homo sapiens [18] = species on record: Homo sapiens; assay: Inhibition of Abl-P (unknown origin) at 1 uM in presence of ATP relative to control; values are per cent of control
[19] = target: Serine/threonine-protein kinase ULK2 (Homo sapiens) (UniProt Q8IYT8); assay: Inhibition of ULK2 (unknown origin) at 1 uM in presence of ATP relative to control; values are per cent of control
Sequence of Serine/threonine-protein kinase ULK2 (Homo sapiens) (Q8IYT8 whole entry): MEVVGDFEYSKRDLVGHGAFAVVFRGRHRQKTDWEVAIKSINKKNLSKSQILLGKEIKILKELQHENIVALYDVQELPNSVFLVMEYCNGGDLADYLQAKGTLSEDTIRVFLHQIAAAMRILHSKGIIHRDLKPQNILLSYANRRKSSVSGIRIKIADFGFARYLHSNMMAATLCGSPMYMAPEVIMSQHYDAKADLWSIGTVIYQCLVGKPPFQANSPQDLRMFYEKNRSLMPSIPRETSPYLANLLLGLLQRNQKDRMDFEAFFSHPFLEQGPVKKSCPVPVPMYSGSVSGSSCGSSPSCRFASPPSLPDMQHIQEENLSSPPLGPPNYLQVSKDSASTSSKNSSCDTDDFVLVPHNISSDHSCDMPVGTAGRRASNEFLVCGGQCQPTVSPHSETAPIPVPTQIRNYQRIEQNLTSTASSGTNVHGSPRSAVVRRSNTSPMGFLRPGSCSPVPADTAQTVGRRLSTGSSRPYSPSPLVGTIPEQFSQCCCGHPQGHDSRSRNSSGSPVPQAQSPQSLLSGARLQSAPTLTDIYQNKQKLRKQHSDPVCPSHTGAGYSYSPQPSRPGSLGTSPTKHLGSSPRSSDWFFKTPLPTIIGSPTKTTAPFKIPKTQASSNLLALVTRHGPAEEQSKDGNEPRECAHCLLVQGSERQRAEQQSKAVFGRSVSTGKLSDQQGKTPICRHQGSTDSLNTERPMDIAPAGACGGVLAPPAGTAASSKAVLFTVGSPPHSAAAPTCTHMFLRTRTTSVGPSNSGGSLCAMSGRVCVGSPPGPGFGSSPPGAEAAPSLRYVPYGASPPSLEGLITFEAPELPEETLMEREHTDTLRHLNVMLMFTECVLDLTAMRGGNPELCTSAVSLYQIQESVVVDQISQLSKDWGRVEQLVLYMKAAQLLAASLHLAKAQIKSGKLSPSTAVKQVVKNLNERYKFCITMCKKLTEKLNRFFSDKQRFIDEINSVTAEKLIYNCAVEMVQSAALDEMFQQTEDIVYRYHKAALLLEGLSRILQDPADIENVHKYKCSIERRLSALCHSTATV

[20] = target: Testis-specific serine/threonine-protein kinase 2 (Homo sapiens) (UniProt Q96PF2); assay: Inhibition of TSSK2 (unknown origin) at 1 uM in presence of ATP relative to control; values are per cent of control
[21] = target: SRSF protein kinase 3 (Homo sapiens) (UniProt Q9UPE1); assay: Inhibition of MSSK1 (unknown origin) at 1 uM in presence of ATP relative to control; values are per cent of control
Sequence of SRSF protein kinase 3 (Homo sapiens) (Q9UPE1 whole entry): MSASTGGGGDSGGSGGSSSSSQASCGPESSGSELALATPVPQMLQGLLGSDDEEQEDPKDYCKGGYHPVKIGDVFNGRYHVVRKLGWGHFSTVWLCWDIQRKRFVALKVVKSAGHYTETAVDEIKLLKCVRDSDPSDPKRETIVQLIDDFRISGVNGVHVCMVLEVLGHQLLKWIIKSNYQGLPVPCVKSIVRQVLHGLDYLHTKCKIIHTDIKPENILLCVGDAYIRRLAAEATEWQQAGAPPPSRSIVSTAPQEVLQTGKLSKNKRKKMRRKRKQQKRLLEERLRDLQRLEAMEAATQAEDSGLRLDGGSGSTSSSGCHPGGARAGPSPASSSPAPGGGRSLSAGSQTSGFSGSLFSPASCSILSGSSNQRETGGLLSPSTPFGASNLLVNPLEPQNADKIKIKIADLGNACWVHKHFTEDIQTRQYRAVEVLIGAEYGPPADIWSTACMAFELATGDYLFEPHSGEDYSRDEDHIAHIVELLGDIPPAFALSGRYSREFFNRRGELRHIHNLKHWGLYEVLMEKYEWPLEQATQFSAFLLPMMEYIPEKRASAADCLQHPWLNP

[22] = target: Calcium/calmodulin-dependent protein kinase type II subunit beta (Homo sapiens) (UniProt Q13554); assay: Inhibition of CAMK2b (unknown origin) at 1 uM in presence of ATP relative to control; values are per cent of control
Sequence of Calcium/calmodulin-dependent protein kinase type II subunit beta (Homo sapiens) (Q13554 whole entry): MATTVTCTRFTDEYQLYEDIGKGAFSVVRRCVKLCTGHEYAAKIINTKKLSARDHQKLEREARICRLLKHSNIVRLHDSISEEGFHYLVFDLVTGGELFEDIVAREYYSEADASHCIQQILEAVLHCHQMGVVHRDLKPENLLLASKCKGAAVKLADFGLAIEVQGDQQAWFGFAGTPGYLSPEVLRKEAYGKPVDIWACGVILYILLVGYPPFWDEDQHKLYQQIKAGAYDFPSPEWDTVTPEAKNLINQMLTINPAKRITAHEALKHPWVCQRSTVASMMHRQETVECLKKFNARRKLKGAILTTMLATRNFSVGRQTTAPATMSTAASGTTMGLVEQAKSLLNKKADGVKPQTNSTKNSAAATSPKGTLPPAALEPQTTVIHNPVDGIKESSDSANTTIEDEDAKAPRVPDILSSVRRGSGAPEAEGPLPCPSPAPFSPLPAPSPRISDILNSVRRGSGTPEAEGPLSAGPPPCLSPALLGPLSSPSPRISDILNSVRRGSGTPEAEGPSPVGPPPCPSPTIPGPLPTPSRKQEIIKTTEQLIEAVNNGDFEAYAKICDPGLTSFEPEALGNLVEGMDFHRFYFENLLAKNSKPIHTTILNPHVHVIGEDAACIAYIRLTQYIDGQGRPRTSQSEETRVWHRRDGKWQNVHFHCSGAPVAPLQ

[23] = Clearance in mouse at 1 mg/kg, iv administered as 20% hydroxypropyl-beta-cyclodextrin formulation by LC-MS analysis; type: ADME, organism-based; settings: in vivo
HT-29 = assay: Inhibition of cell proliferation in human HT-29 cells upto 10 umol/L incubated for 72 hrs by DAPI staining based analysis; type: functional; settings: dose <= 10.0 µmol/L

For `C[C@@H]1CCc2ncc(F)cc2[C@H]2CCCN2c2ccn3ncc(c3n2)C(=O)N1` [SELITRECTINIB], the residual activity [1] was 106%, the inhibition (EFM-19) was “inactive” and the inhibition (C32) was “inactive”. For the same molecule, the residual activity [2] was 128%, the inhibition (A101D) was “inactive” and the residual activity [3] was 112%. For the same molecule, the residual activity [4] was 125%, the Cmax [5] was 776 ng/mL and the residual activity [6] was 102%. For the same molecule, the residual activity [7] was 95.5%, the IC50 [8] was 45.5 nM and the inhibition (NCI-H661) was “inactive”. For the same molecule, the residual activity (Homo sapiens [9]) was 109%, the residual activity [10] was 113% and the inhibition [11] was 15%. The residual activity [12] was 90%, the residual activity [13] was 102% and the inhibition (OE19) was “inactive”. For the same molecule, the inhibition (LC2) was “inactive”, the residual activity [14] was 92.5% and the residual activity [15] was 102%. The residual activity [16] was 136%, the inhibition (RT112/84) was “inactive” and the residual activity [17] was 93.5%. It also gave a residual activity (Homo sapiens [18]) of 87%, a residual activity [19] of 96% and a residual activity [20] of 120%. For the same molecule, the residual activity [21] was 122%, the residual activity [22] was 100% and the clearance [23] was 4.83 mL/min/kg. For the same molecule, the inhibition (HT-29) was “inactive”.
